Test results taken from patent US12622910B2, “Inhibitors of Bruton's tyrosine kinase and methods of their use” (Janssen Pharmaceutica NV, priority 2021, dated 2026).
Read-outs that look alike come from different tables or passages of the source.

Assays:
5-HT Transporter (h) = 5-HT Transporter (h) (Homo sapiens, UniProt P31645); experiment: Receptor panel, Study 1; type: binding
Method: (§1) RESULTS AND DISCUSSION—Selectivity—The compound of Formula (III) was evaluated in three selectivity panels to assess the potential for off-target pharmacology (Table 8). […] The kinase off-target profile of The compound of Formula (III) was assessed in a full human wild-type panel using radiometric kinase activity assays (KinaseProfiler™ and IC50Profiler™; Eurofins Scientific) (Table 9; FIG. 23). The compound of Formula (III) inhibited 4/278 kinases >50% at 1 micromolar, identifying BTK and the three other kinases having analogous Cys residues with the potential for covalent inhibition (BMX, TEC, BLK). […]. The cellular kinase selectivity of The compound of Formula (III) was established in native Ramos B cell kinome assays (KiNativ™; ActivX) confirmed BTK as the primary target with inhibition of BLK and TEC inhibition detected (Table 10).

5-HT1B = 5-HT1B (Rattus norvegicus, UniProt P28564); experiment: Receptor panel, Study 1; type: binding
Method: as §1

5-HT6 (h) = 5-HT6 (h) (Homo sapiens, UniProt P50406); experiment: Receptor panel, Study 1; type: binding
Method: as §1

BZD (central) = experiment: Receptor panel, Study 1; type: binding
Method: as §1

CCR1 (h) = CCR1 (h) (Homo sapiens, UniProt P32246); experiment: Receptor panel, Study 1; type: binding
Sequence of CCR1 (h) (P32246 whole entry): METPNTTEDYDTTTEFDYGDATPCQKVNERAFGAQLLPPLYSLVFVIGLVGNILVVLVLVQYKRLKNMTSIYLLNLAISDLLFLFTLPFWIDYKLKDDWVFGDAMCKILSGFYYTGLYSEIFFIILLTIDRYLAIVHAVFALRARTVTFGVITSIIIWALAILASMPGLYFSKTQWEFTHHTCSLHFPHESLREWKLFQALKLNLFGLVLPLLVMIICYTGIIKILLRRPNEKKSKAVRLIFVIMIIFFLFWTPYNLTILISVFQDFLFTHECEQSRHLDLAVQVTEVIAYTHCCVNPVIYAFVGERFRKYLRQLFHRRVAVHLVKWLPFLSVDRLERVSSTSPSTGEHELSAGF
Method: as §1

CXCR2 (h) (IL-8B) = CXCR2 (h) (IL-8B) (Homo sapiens, UniProt P25025); experiment: Receptor panel, Study 1; type: binding
Method: as §1

D1 (h) = D1 (h) (Homo sapiens, UniProt P21728); experiment: Receptor panel, Study 1; type: binding
Sequence of D1 (h) (P21728 whole entry): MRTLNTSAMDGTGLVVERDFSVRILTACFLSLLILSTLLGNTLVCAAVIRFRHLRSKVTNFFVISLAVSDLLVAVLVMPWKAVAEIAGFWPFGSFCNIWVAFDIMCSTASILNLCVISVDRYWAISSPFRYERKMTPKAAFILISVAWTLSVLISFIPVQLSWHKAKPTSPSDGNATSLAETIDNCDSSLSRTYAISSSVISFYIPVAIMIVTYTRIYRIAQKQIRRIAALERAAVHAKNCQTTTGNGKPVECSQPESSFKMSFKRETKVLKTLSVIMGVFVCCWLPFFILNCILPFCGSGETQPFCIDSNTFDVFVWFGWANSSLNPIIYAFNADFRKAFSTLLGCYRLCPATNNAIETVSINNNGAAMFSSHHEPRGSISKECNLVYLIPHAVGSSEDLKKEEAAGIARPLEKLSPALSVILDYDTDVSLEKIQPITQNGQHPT
Method: as §1

ETA (h) = ETA (h) (Homo sapiens, UniProt P25101); experiment: Receptor panel, Study 1; type: binding
Sequence of ETA (h) (P25101 21-427): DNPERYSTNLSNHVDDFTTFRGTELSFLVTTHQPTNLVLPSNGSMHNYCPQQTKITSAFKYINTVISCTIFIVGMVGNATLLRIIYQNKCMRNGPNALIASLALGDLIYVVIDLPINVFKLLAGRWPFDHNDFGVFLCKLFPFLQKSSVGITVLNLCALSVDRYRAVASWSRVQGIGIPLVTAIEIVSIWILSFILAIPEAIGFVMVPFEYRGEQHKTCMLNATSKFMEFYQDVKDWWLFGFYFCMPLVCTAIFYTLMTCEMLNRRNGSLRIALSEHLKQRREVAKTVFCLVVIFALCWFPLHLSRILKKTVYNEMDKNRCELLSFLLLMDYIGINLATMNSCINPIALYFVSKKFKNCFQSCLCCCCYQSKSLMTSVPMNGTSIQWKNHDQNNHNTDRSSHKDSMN
Method: as §1

GAL2 (h) = GAL2 (h) (Homo sapiens, UniProt O43603); experiment: Receptor panel, Study 1; type: binding
Method: as §1

H1 (h) = H1 (h) (Homo sapiens, UniProt P35367); experiment: Receptor panel, Study 1; type: binding
Method: as §1

M3 (h) = M3 (h) (Homo sapiens, UniProt P20309); experiment: Receptor panel, Study 1; type: binding
Method: as §1

NT1 (h) (NTS1) = NT1 (h) (NTS1) (Homo sapiens, UniProt P30989); experiment: Receptor panel, Study 1; type: binding
Method: as §1

VIP1 (h) (VPAC1) = VIP1 (h) (VPAC1) (Homo sapiens, UniProt P32241); experiment: Receptor panel, Study 1; type: binding
Sequence of VIP1 (h) (VPAC1) (P32241 31-457): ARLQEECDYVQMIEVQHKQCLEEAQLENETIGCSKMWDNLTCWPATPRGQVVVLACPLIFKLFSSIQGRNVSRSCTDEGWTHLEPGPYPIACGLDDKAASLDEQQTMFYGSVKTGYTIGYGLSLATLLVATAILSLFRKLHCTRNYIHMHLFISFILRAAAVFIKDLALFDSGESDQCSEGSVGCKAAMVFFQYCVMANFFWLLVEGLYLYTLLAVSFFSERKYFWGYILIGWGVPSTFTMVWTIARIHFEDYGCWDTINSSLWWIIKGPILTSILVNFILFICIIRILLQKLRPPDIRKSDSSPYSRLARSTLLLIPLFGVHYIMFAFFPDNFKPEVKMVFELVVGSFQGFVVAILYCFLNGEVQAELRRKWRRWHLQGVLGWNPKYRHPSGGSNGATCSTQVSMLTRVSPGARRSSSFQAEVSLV
Method: as §1

Vla(h) = Vla(h) (Homo sapiens, UniProt P37288); experiment: Receptor panel, Study 1; type: binding
Sequence of Vla(h) (P37288 whole entry): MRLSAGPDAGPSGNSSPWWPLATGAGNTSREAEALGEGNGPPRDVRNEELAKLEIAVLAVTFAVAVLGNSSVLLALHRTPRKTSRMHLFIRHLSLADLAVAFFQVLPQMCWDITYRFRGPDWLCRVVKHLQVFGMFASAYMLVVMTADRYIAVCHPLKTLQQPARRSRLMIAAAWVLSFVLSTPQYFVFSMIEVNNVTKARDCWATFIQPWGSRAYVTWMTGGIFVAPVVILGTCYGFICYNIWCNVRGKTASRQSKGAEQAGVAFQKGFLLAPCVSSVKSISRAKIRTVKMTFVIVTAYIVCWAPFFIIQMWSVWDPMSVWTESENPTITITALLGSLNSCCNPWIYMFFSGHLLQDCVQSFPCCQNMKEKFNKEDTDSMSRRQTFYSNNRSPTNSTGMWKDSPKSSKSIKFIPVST
Method: as §1

alpha 1 = experiment: Receptor panel, Study 1; type: binding
Method: as §1

delta 2(h) (DOP) = delta 2(h) (DOP) (Homo sapiens, UniProt P41143); experiment: Receptor panel, Study 1; type: binding
Sequence of delta 2(h) (DOP) (P41143 whole entry): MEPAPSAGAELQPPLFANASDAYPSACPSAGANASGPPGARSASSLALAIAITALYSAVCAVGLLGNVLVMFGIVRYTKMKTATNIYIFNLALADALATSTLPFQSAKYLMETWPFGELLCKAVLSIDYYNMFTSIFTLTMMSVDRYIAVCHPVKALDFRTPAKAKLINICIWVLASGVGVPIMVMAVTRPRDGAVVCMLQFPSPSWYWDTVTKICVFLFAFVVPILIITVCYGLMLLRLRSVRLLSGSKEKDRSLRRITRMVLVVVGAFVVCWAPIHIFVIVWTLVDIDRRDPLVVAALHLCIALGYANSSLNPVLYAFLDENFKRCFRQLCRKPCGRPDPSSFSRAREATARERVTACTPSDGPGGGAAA
Method: as §1

Liver microsomal binding = type: in vitro ADME; conditions: liver microsomes, read-out: % Free in liver microsomes
Method: Additional Data on Preclinical PK Profile—Protein binding of the compound of Formula (III) was studied using an equilibrium dialysis method in plasma from human, cynomolgus monkey, beagle dog, Sprague Dawley rat, CD-1 mouse, and guinea pig at 0.25, 2.5, and 25 μM. […] In human and monkey, the plasma protein binding was concentration dependent. […] Free fraction of the compound of Formula (III) in liver microsomes from various species ranged from 75.1% to 87.9% at 0.25 mg/mL and from 58.9% to 86.5% at 1.0 mg/mL (Table 17). […] In hepatocytes, the compound of Formula (III) turnover followed a similar trend, with T1/2 ranging from 75.3 minutes in monkey to 278.1 minutes in human.

CYP1A2 = target: T1, CYP1A2 (Homo sapiens, UniProt P05177); experiment: CYP inhibition in human liver microsomes; type: in vitro ADME; conditions: probe Phenacetin
T1 construct: with specific CYP probe substrates in human liver microsomes; from tissue; host or cells: human liver microsomes
T1 sequence (P05177 whole entry): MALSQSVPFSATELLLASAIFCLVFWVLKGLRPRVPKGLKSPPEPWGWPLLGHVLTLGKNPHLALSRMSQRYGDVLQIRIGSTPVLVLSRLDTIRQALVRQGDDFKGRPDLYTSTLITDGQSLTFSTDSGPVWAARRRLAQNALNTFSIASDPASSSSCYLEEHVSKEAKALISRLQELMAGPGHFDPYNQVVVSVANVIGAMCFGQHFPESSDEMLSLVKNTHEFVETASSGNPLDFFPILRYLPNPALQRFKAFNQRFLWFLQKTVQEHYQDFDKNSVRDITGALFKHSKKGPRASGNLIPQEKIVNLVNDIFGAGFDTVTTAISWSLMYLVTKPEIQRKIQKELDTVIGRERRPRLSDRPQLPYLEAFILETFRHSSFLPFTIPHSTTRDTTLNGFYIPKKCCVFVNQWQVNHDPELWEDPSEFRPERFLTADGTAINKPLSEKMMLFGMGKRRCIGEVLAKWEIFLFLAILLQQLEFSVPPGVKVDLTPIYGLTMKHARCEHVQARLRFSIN
Method: (§2) The potential of the compound of Formula (III) to inhibit human CYP450s in vitro was investigated up to test concentrations of 50 μM by incubating the compound of Formula (III) with specific CYP probe substrates in human liver microsomes and measuring probe metabolite formation.

CYP2A6 = target: T2, CYP2A6 (Homo sapiens, UniProt P11509); experiment: CYP inhibition in human liver microsomes; type: in vitro ADME; conditions: probe Coumarin
T2 construct: with specific CYP probe substrates in human liver microsomes; from tissue; host or cells: human liver microsomes
T2 sequence (P11509 whole entry): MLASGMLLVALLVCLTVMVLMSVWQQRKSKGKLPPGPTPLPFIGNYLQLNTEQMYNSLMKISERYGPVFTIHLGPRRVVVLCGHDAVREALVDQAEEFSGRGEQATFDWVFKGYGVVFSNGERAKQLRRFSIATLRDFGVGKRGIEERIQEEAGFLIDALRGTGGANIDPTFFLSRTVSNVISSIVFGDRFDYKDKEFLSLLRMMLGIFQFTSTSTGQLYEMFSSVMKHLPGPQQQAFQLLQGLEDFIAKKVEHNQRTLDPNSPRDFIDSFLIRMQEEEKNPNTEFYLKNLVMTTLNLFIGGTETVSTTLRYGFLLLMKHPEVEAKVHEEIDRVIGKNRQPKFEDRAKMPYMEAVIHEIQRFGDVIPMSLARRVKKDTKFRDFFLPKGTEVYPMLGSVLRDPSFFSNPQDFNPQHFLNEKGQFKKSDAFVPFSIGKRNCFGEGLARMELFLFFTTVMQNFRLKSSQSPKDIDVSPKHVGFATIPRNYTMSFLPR
Method: as §2

CYP2B6 = target: T3, CYP2B6 (Homo sapiens, UniProt P20813); experiment: CYP inhibition in human liver microsomes; type: in vitro ADME; conditions: probe Bupropion
T3 construct: with specific CYP probe substrates in human liver microsomes; from tissue; host or cells: human liver microsomes
Method: as §2

CYP2C19 = target: T4, CYP2C19 (Homo sapiens, UniProt P33261); experiment: CYP inhibition in human liver microsomes; type: in vitro ADME; conditions: probe S-Mephenytoin
T4 construct: with specific CYP probe substrates in human liver microsomes; from tissue; host or cells: human liver microsomes
T4 sequence (P33261 whole entry): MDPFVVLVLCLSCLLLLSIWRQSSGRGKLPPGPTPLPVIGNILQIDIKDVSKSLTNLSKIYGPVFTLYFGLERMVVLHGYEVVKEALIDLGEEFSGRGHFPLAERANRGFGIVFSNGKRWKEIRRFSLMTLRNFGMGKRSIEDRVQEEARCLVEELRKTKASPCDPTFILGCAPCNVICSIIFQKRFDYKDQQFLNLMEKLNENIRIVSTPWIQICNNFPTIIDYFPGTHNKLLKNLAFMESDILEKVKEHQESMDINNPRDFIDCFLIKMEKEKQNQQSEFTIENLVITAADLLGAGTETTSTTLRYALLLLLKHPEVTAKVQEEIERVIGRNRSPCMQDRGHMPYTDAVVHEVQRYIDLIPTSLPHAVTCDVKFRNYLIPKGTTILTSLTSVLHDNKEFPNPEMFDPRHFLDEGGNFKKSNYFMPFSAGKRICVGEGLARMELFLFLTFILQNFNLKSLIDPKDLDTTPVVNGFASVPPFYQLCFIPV
Method: as §2

CYP2C9 = target: T5, CYP2C9 (Homo sapiens, UniProt P11712); experiment: CYP inhibition in human liver microsomes; type: in vitro ADME
T5 construct: with specific CYP probe substrates in human liver microsomes; from tissue; host or cells: human liver microsomes
T5 sequence (P11712 whole entry): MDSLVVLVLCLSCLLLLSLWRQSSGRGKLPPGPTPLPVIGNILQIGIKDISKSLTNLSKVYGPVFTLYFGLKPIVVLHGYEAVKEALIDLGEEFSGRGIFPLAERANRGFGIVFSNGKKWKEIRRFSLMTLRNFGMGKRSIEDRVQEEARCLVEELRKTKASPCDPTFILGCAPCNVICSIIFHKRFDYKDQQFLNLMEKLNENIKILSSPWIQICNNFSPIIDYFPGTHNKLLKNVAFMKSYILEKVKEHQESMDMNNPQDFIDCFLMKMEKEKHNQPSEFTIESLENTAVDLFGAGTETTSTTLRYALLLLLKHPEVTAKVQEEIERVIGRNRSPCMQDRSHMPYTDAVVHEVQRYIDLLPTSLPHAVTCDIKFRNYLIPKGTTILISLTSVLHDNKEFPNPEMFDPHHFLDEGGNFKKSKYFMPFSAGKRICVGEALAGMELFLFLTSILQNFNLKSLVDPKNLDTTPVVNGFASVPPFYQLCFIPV
Method: as §2

CYP2D6 = target: T6, CYP2D6 (Homo sapiens, UniProt P10635); experiment: CYP inhibition in human liver microsomes; type: in vitro ADME; conditions: probe Dextromethorphan
T6 construct: with specific CYP probe substrates in human liver microsomes; from tissue; host or cells: human liver microsomes
Method: as §2

CYP3A4 = target: T7, CYP3A4 (Homo sapiens, UniProt P08684); experiment: CYP inhibition in human liver microsomes; type: in vitro ADME
T7 construct: with specific CYP probe substrates in human liver microsomes; from tissue; host or cells: human liver microsomes
T7 sequence (P08684 whole entry): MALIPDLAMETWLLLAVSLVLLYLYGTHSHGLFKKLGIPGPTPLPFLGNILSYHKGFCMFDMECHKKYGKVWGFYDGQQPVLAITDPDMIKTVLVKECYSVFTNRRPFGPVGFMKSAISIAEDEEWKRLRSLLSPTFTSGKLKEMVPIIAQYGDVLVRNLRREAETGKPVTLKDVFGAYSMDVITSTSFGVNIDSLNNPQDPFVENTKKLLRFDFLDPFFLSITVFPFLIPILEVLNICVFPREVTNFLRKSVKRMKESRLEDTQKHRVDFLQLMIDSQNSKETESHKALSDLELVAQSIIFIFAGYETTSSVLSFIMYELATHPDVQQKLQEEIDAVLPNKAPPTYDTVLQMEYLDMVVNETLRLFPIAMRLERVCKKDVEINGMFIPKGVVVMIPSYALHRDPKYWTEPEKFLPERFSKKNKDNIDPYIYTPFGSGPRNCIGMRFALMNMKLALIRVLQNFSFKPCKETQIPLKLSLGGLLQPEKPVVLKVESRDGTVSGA
Method: as §2

CYP3A = experiment: CYP induction in plated human hepatocytes, midazolam probe; type: in vitro ADME; conditions: 48 hours
[1] = Preclinical PK, oral and IV; type: in vivo, monkey

C=CC(=O)N[C@H]1CCC[C@H]1NC(=O)c1sc2nccc3c2c1NC(=O)N3c1cnc(CC(C)C)cc1C (atropisomer, axis not shown) [compound of Formula (III), N-((1R,2S)-2-Acrylamidocyclopentyl)-5-(S)-(6-isobutyl-4-methylpyridin-3-yl)-4-oxo-4,5-dihydro-3H-1-thia-3,5,8-triazaacenaphthylene-2-carboxamide]
inhibition at 10 µM (5-HT Transporter (h)): < 10% | inhibition at 10 µM (5-HT1B): < 10% | inhibition at 10 µM (5-HT6 (h)): < 10% | % Inhibition at 10 μM (BZD (central)): — (no inhibition observed) | inhibition at 10 µM (CCR1 (h)): < 10% | inhibition at 10 µM (CXCR2 (h) (IL-8B)): < 10% | inhibition at 10 µM (D1 (h)): < 10% | inhibition at 10 µM (ETA (h)): < 10% | inhibition at 10 µM (GAL2 (h)): < 10% | inhibition at 10 µM (H1 (h)): < 10% | inhibition at 10 µM (M3 (h)): < 10% | inhibition at 10 µM (NT1 (h) (NTS1)): < 10% | inhibition at 10 µM (VIP1 (h) (VPAC1)): < 10% | inhibition at 10 µM (Vla(h)): < 10% | % Inhibition at 10 μM (alpha 1): — (no inhibition observed) | inhibition at 10 µM (delta 2(h) (DOP)): < 10% | fraction unbound at 1 μM (Liver microsomal binding; dog, 0.25 mg/mL): 0.879 | fraction unbound at 1 μM (Liver microsomal binding; dog, 1.0 mg/mL): 0.694 | fraction unbound at 1 μM (Liver microsomal binding; human, 0.25 mg/mL): 0.758 | fraction unbound at 1 μM (Liver microsomal binding; human, 1.0 mg/mL): 0.641 | fraction unbound at 1 μM (Liver microsomal binding; monkey, 0.25 mg/mL): 0.751 | fraction unbound at 1 μM (Liver microsomal binding; monkey, 1.0 mg/mL): 0.589 | fraction unbound at 1 μM (Liver microsomal binding; mouse, 1.0 mg/mL): 0.82 | fraction unbound at 1 μM (Liver microsomal binding; rat, 0.25 mg/mL): 0.84 | fraction unbound at 1 μM (Liver microsomal binding; rat, 1.0 mg/mL): 0.865 | IC50 (CYP1A2): > 50 µM | IC50 (CYP2A6): > 50 µM | IC50 (CYP2B6): > 50 µM | IC50 (CYP2C19): > 50 µM | IC50 (CYP2C9; probe Diclofenac): 3 µM | IC50 (CYP2C9; probe Tolbutamide): 5.3 µM | IC50 (CYP2D6): 26 µM | IC50 (CYP3A4; probe Midazolam): 25 µM | IC50 (CYP3A4; probe Nifedipine): > 50 µM | IC50 (CYP3A4; probe Testosterone): 40 µM | change in CYP3A enzyme activity (CYP3A; 1 μM): −0.8% | change in CYP3A enzyme activity (CYP3A; 10 μM): 0.8% | clearance ([1]; monkey, in vivo, iv): 0.186 ± 0.018 L/h/kg | half-life ([1]; monkey, in vivo, iv, read-out: IV T1/2 (converted)): 4 h | Vd ([1]; monkey, in vivo, iv, read-out: Vss): 0.7 L/kg | Cmax ([1]; monkey, in vivo, oral): 1.01 ± 0.094 µg/mL | Tmax ([1]; monkey, in vivo, oral): 1.7 ± 0.6 h | AUC(0-inf) ([1]; monkey, in vivo, oral, read-out: Oral AUCinf): 10 ± 2.27 µg·h/mL | F ([1]; oral, monkeys): 75 ± 17%
